Results reported in a compilation of properties of binary mixtures (doi:10.1021/acs.jpcb.9b10454).

Assay: xn = mol fraction of the nth substance listed
Settings: 303.15 K, 100 kPa

Structure (SMILES): CCn1cc[nH+]c1.O=S(=O)([N-]S(=O)(=O)C(F)(F)F)C(F)(F)F + c1c[nH]cn1
- electrical conductivity (x1 = 0.194): 0.891 S/m
- viscosity (x1 = 0.252): 20.7 mPa·s
- viscosity (x1 = 0.333): 23 mPa·s
- electrical conductivity (x1 = 0.385): 0.616 S/m
- viscosity (x1 = 0.501): 25.3 mPa·s
- electrical conductivity (x1 = 0.597): 0.587 S/m
- viscosity (x1 = 0.601): 25.6 mPa·s
- viscosity (x1 = 0.671): 27.7 mPa·s
- electrical conductivity (x1 = 0.79): 0.556 S/m
- viscosity (x1 = 0.802): 24.3 mPa·s
- electrical conductivity (x1 = 0.889): 0.512 S/m
- viscosity (x1 = 0.901): 26.7 mPa·s
- viscosity (x1 = 1): 38.8 mPa·s
